Assay results taken from ChEMBL document CHEMBL4190203, “Effects of Cinnamoyloxy-mammeisin from Geopropolis on Osteoclast Differentiation and Porphyromonas gingivalis-Induced Periodontitis” (J Nat Prod, 2017).
Active and inactive are the calls of the source. The rule behind the calls is not given here.

Columns and labels:
Mus musculus [1] = experiment: Antiperiodontitic activity in BALB/c mouse model of Porphyromonas gingivalis-induced periodontitis assessed as reduction in maxillary tissue Mmp9 mRNA levels at 100 ug/kg, id dosed once in 2 days for 30 days; format: functional, organism-based
[2] = biological target: Matrix metalloproteinase-9 (Mus musculus) (UniProt P41245); experiment: Inhibition of MMP9 activity in C57BL/6 mouse BMMC at 5 to 20 uM by coomassie blue staining-based gelatin zymography assay; format: cell-based
BMMC [3] = experiment: Downregulation of M-CSF/RANKL-induced CTSK protein expression levels in C57BL/6 mouse BMMC at 20 uM after 3 days by Western blot analysis; format: functional, cell-based
BMMC [4] = experiment: Reduction in M-CSF/RANKL-induced V-ATPase mRNA levels in C57BL/6 mouse BMMC at 20 uM after 3 days by RT-qPCR analysis; format: functional, cell-based
BMMC [5] = experiment: Cytotoxicity against C57BL/6 mouse BMMC at 5 to 20 uM after 3 days in presence of M-CSF/RANKL by MTT assay; format: cell-based; conditions: 72 h
BMMC [6] = experiment: Downregulation of M-CSF/RANKL-induced integrin alphaV protein expression levels in C57BL/6 mouse BMMC at 20 uM after 3 days by Western blot analysis; format: functional, cell-based
BMMC [7] = experiment: Downregulation of M-CSF/RANKL-induced NFATc1 protein expression levels in C57BL/6 mouse BMMC after 3 days by Western blot analysis; format: functional, cell-based
BMMC [8] = experiment: Reduction in M-CSF/RANKL-induced Trap/Acp5 mRNA levels in C57BL/6 mouse BMMC at 20 uM after 3 days by RT-qPCR analysis; format: functional, cell-based
Mus musculus [9] = experiment: Antiperiodontitic activity in BALB/c mouse model of Porphyromonas gingivalis-induced periodontitis assessed as reduction in maxillary tissue CtsK mRNA levels at 100 ug/kg, id dosed once in 2 days for 30 days; format: functional, organism-based
BMMC [10] = experiment: Inhibition of M-CSF/RANKL-induced osteoclast differentiation in C57BL/6 mouse BMMC assessed as decrease in multinucleated TRAP+ cells after 3 days by TRAP staining-based assay; format: functional, cell-based
BMMC [11] = experiment: Reduction in M-CSF/RANKL-induced NFATc1 mRNA levels in C57BL/6 mouse BMMC at 20 uM after 3 days by RT-qPCR analysis; format: functional, cell-based
BMMC [12] = experiment: Reduction in M-CSF/RANKL-induced Ctsk mRNA levels in C57BL/6 mouse BMMC at 20 uM after 3 days by RT-qPCR analysis; format: functional, cell-based
BMMC [13] = experiment: Inhibition of M-CSF/RANKL-induced osteoclast differentiation in C57BL/6 mouse BMMC assessed as decrease in multinucleated TRAP+ cells at 20 uM after 3 days by TRAP staining-based assay; format: functional, cell-based
Mus musculus [14] = experiment: Antiperiodontitic activity in BALB/c mouse model of Porphyromonas gingivalis-induced periodontitis assessed as reduction in maxillary tissue Trap/Acp5 mRNA levels at 100 ug/kg, id dosed once in 2 days for 30 days; format: functional, organism-based
BMMC [15] = experiment: Inhibition of M-CSF/RANKL-induced matrix resorption capacity in C57BL/6 mouse BMMC at 10 to 20 uM after 4 days in hydroxyapatite-coated plates; format: functional, cell-based
Mus musculus [16] = experiment: Antiperiodontitic activity in BALB/c mouse model of Porphyromonas gingivalis-induced periodontitis assessed as reduction in alveolar bone resorption at 100 ug/kg, id dosed once in 2 days for 30 days; format: functional, organism-based
BMMC [17] = experiment: Reduction in M-CSF/RANKL-induced Itgb3 mRNA levels in C57BL/6 mouse BMMC at 20 uM after 3 days by RT-qPCR analysis; format: functional, cell-based
BMMC [18] = experiment: Reduction in M-CSF/RANKL-induced MMP-9 mRNA levels in C57BL/6 mouse BMMC at 20 uM after 3 days by RT-qPCR analysis; format: functional, cell-based

Sequence of Matrix metalloproteinase-9 (Mus musculus) (P41245 whole entry): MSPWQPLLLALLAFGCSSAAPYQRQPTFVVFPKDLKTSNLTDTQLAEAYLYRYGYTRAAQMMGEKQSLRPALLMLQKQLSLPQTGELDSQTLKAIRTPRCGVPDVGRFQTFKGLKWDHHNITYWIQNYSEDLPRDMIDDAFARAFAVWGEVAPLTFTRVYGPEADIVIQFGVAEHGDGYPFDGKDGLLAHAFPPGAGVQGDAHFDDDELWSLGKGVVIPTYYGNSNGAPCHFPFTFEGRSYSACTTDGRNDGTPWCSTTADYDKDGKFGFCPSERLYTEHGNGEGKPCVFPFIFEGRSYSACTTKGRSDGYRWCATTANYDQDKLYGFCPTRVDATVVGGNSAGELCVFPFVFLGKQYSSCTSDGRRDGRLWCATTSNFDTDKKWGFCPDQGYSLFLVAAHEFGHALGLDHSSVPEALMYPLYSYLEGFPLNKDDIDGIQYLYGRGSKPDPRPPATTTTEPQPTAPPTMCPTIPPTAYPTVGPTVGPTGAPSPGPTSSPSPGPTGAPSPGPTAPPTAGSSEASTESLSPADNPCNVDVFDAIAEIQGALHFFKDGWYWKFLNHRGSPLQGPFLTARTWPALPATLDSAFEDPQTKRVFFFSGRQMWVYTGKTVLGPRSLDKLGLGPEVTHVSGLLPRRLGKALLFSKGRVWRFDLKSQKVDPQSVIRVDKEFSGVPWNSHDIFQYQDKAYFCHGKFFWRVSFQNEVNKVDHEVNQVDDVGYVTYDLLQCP

## CC(C)=CCc1c(O)c(C(=O)CC(C)COC(=O)/C=C/c2ccccc2)c(O)c2c(-c3ccccc3)cc(=O)oc12 (stereo not drawn)
Mus musculus [1]
  Activity: inactive
[2]
  inhibition: Active
BMMC [3]
  Activity: Active
BMMC [4]
  Activity: Active
BMMC [5]
  Activity: Non-Toxic
BMMC [6]
  Activity: Active
BMMC [7]
  Activity: Dose-dependent effect
BMMC [8]
  Activity: Active
Mus musculus [9]
  Activity: Active
BMMC [10]
  inhibition: Dose-dependent effect
BMMC [11]
  Activity: Active
BMMC [12]
  Activity: Active
BMMC [13]
  inhibition: Active
Mus musculus [14]
  Activity: Active
BMMC [15]
  inhibition: Active
Mus musculus [16]
  Activity: Active
BMMC [17]
  Activity: Active
BMMC [18]
  Activity: Active
